From patent publication US12338464B2, “Clonal strains of attenuated vaccinia viruses and methods of use thereof” (priority 2011, dated 2025)

Tests used:
[1] = tested on: A549 human lung carcinoma cells; assay type: cell-based; details: 5 μM ST-246
[2] = tested on: A549 human lung carcinoma xenografts; test: A549 xenograft: tumor volume; assay type: in vivo, mouse; details: 2.5 μM ST-246 in addition to LIVP 5.1.1 or GLV-1h68
[3] = A549 xenograft: average body weight; details: 2.5 μM ST-246

## O=C(NN1C(=O)[C@@H]2[C@@H]3C=C[C@@H]([C@H]4C[C@@H]34)[C@@H]2C1=O)c1ccc(C(F)(F)F)cc1 [ST-246]
[1]
  effect of ST-246 on eradication of A549 cells by LIVP 5.1.1 and GLV-1h68: reduced the eradication of A549 cells
[2]
  effect of ST-246 on tumor reduction by virus: decreased the ability of each virus to reduce tumor size
[3]
  effect of ST-246 on toxicity of virus: reduced toxicity
